ChEMBL document CHEMBL5260807, “Discovery of liver-directed glucokinase activator having anti-hyperglycemic effect without hypoglycemia” (Eur J Med Chem, 2017)

Tests used:
[1] = Cmax in C57BL/6J mouse at 30 mg/kg,po and measured after 2 hrs by LC-MS/MS analysis; type: ADME, organism-based; design: dose 30 mg/kg, time 2 hrs, route po; details: in vivo
[2] = AUC(0 to 24 hrs) in C57BL/6J mouse at 30 mg/kg,po and measured after 2 hrs by LC-MS/MS analysis; type: ADME, organism-based; design: time 2 hrs, dose 30 mg/kg, route po; details: in vivo
[3] = Clearance in C57BL/6J mouse at 1 mg/kg,iv and measured after 2 hrs by LC-MS/MS analysis; type: ADME, organism-based; details: in vivo
[4] = Volume of distribution at steady state in C57BL/6J mouse at 1 mg/kg,iv and measured after 2 hrs by LC-MS/MS analysis; type: ADME, organism-based; details: in vivo, read-out: Vdss
[5] = Half life in C57BL/6J mouse at 1 mg/kg,iv and measured after 2 hrs by LC-MS/MS analysis; type: ADME, organism-based; details: in vivo
[6] = Oral bioavailability in C57BL/6J mouse at 30 mg/kg and measured after 2 hrs by LC-MS/MS analysis; type: ADME, organism-based; details: in vivo
[7] = Drug distribution in C57BL/6J mouse liver at 30 mg/kg,po and measured after 1 hrs by LC-MS/MS analysis; type: ADME, organism-based; details: read-out: Drug uptake
[8] = Drug distribution in C57BL/6J mouse liver at 30 mg/kg,po and measured after 3 hrs by LC-MS/MS analysis; type: ADME, organism-based; details: read-out: Drug uptake
[9] = Drug distribution in C57BL/6J mouse in circulatory system at 30 mg/kg,po and measured after 1 hrs by LC-MS/MS analysis; type: ADME, organism-based; details: read-out: Drug uptake
[10] = Drug distribution in C57BL/6J mouse in circulatory system at 30 mg/kg,po and measured after 3 hrs; type: ADME, organism-based; details: read-out: Drug uptake
[11] = molecular target: T1, Hexokinase-4 (Homo sapiens, UniProt P35557); test: Activation of recombinant human glucokinase assessed as increase in maximal activation by measuring accumulation of NADH in presence of S0.5 of glucose and NAD by plate reader analysis
T1 sequence (P35557 whole entry): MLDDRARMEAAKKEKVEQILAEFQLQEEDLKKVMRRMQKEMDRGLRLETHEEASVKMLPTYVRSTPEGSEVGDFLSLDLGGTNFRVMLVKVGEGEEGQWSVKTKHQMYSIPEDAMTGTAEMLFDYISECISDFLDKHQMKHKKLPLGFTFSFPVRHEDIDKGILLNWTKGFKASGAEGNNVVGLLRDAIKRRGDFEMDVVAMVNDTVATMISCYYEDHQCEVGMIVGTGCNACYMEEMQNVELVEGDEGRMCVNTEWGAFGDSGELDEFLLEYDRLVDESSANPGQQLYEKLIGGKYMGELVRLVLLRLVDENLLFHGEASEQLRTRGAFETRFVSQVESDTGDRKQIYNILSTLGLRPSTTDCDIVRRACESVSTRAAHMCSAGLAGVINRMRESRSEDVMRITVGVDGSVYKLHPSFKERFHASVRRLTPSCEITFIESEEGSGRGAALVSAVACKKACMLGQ

[12] = test system: Mus musculus; test: Anti-hyperglycemic activity against diet induced obese C57BL/6J mouse assessed as blood glucose level at 10 to 300 mg/kg ,po and measured upto 180 mins by OGTT; type: functional, organism-based; details: dose 10-300 mg/kg
[13] = Hypoglycemic activity in normoglycemic C57BL/6J mouse assessed as decrease in blood glucose level at 100 mg/kg ,po and measured upto 180 mins by glucose analysis; type: toxicity, organism-based; details: in vivo, 3 h
[14] = Drug uptake in mouse hepatocytes at 1 to 100 uM incubated for 5 mins at 37 degreeC by LC-MS/MS analysis; type: ADME, cell-based, Hepatocyte; details: dose 1-100 µM
[15] = Drug uptake in mouse hepatocytes at 1 to 100 uM incubated for 5 mins at 4 degreeC by LC-MS/MS analysis; type: ADME, cell-based, Hepatocyte; details: dose 1-100 µM
[16] = Inhibition of drug uptake in mouse hepatocytes at 1 to 100 uM incubated for 5 mins in presence of rifamycin SV by LC-MS/MS analysis; type: cell-based, Hepatocyte; details: dose 1-100 µM
[17] = molecular target: T2, Hexokinase-4 (Homo sapiens) (UniProt P35557); test: Activation of recombinant human glucokinase assessed as increase in maximal activation by measuring accumulation of NADH at 60 uM in presence of S0.5 of glucose and NAD by plate reader analysis; details: filed as activator
T2 sequence (whole entry): T1 sequence (P35557 whole entry)

[18] = molecular target: T3, Hexokinase-4 (Rattus norvegicus) (UniProt P17712); test: Activation of glucokinase in rat Primary hepatocytes assessed as fold increase in glycogen synthesis at 10 uM incubated for 30 mins using [U14C]-D-glucose as substrate by Microbeta TriLux luminescence counter analysis; type: cell-based; details: Primary hepatocyte, filed as activator
T3 sequence (whole entry): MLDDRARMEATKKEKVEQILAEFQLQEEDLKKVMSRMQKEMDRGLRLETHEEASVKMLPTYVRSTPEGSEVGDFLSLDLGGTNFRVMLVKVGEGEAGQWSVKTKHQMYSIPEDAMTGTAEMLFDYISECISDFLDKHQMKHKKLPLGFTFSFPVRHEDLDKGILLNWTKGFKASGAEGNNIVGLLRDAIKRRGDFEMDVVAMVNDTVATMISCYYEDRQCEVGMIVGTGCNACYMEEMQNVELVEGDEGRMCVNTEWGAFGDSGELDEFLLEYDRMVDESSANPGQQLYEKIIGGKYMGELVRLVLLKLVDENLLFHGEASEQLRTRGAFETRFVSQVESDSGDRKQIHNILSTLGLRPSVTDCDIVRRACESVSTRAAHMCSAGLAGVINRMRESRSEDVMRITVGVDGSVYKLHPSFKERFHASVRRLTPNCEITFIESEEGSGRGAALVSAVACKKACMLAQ

[19] = AUC(0 to t) in C57BL/6J mouse at 30 mg/kg,po; type: ADME, organism-based; design: dose 30 mg/kg, route po; details: in vivo
[20] = Clearance in C57BL/6J mouse at 3 mg/kg,iv and measured after 2 hrs by LC-MS/MS analysis; type: ADME, organism-based; details: in vivo
[21] = Volume of distribution at steady state in C57BL/6J mouse at 3 mg/kg,iv and measured after 2 hrs by LC-MS/MS analysis; type: ADME, organism-based; details: in vivo, read-out: Vdss
[22] = Half life in C57BL/6J mouse at 3 mg/kg,iv and measured after 2 hrs by LC-MS/MS analysis; type: ADME, organism-based; details: in vivo
[23] = test system: Mus musculus; test: Anti-hyperglycemic activity against diet induced obese C57BL/6J mouse assessed as reduction in AUCglucose level at 30 mg/kg ,po and measured upto 180 mins by OGTT; type: functional; design: scale not given: the % may be the effect or the level left; details: 3 h
[24] = test system: Mus musculus; test: Anti-hyperglycemic activity against diet induced obese C57BL/6J mouse assessed as reduction in AUCglucose level at 100 mg/kg ,po and measured upto 180 mins by OGTT; type: functional; design: scale not given: the % may be the effect or the level left; details: 3 h
[25] = Hypoglycemic activity in normoglycemic C57BL/6J mouse at 300 mg/kg ,po and measured upto 180 mins by glucose analysis; type: toxicity, organism-based; details: in vivo, 3 h
[26] = Hypoglycemic activity in normoglycemic C57BL/6J mouse assessed as decrease in blood glucose level at 300 mg/kg ,po and measured upto 180 mins by glucose analysis; type: toxicity, organism-based; details: in vivo, 3 h
[27] = Drug uptake in C57BL/6J mouse plasma at 30 mg/kg,po and measured after 1 hrs; type: ADME, organism-based
[28] = Drug uptake in C57BL/6J mouse plasma at 30 mg/kg,po and measured after 3 hrs; type: ADME, organism-based

## CC(C)(Oc1ccc(F)cc1F)C(=O)Nc1nc(CC(=O)O)c(Cl)s1
[1]
  Cmax: 326 µM
[2]
  AUC(0-t) at 2 h: 802 µM·h
[3]
  clearance: 3.5 mL/min/kg
[4]
  Vd: 0.4 L/kg
[5]
  half-life: 1 h
[6]
  bioavailability: 100%
[7]
  concentration at 1 h: 111 µM
[8]
  concentration at 3 h: 104 µM
[9]
  concentration at 1 h: 220 µM
[10]
  concentration at 3 h: 85 µM
[11]
  EC50: 7000 nM
[12]
  Activity: Dose-Dependent Effect
[13]
  Activity: < 60 mg/dL
[14]
  Drug uptake: < 5%
[15]
  Drug uptake: 5%
[16]; hepatocytes, 5 min, 100 µM
  inhibition (INH): Not Active

## O=C(O)Cc1nc(NC(=O)C(Oc2ccc(F)cc2F)c2ccc(S(=O)(=O)N3CCCCC3)cc2)sc1Cl (centres undefined)
[11]
  EC50: 500 nM

## CC(Oc1ccc(F)cc1F)(C(=O)Nc1nc(CC(=O)O)c(Cl)s1)c1ccc(S(=O)(=O)N2CCCCC2)cc1 (centres undefined)
[11]
  EC50: > 20000 nM
[17]
  Activity: 60%

## O=C(O)c1ccc(Oc2cnc(NC(=O)C(Oc3ccc(F)cc3F)c3ccc(S(=O)(=O)C4CC4)cc3)s2)cc1 (centres undefined)
[11]
  EC50: 190 nM
[18]
  fold change (FC): 11.4

## O=C(O)C1CCN(Cc2cnc(NC(=O)C(Oc3ccc(F)cc3F)c3ccc(S(=O)(=O)C4CC4)cc3)s2)CC1 (centres undefined)
[11]
  EC50: > 10000 nM

## O=C(O)c1ccc(Oc2cnc(NC(=O)[C@H](Oc3ccc(F)cc3F)c3ccc(S(=O)(=O)C4CC4)cc3)s2)cc1
[1]
  Cmax: 13.3 µM
[6]
  bioavailability: 86%
[7]
  concentration at 1 h: 215 µM
[8]
  concentration at 3 h: 184 µM
[9]
  concentration at 1 h: 6 µM
[10]
  concentration at 3 h: 2.7 µM
[19]
  AUC(0-t): 22 µM·h
[11]
  EC50: 34 nM
[18]
  fold change (FC): 12.2
[20]
  clearance: 32.6 mL/min/kg
[21]
  Vd: 1.67 L/kg
[22]
  half-life: 2.16 h
[14]
  Drug uptake: 30%
[15]
  Drug uptake: < 5%
[16]; mouse hepatocytes, with rifamycin SV
  inhibition at 5 min, up to 100 µM: 90%
[23]
  Activity: 21%
[24]
  Activity: 34%
[25]
  Activity: Not Active
[26]
  Activity: Active

## O=C(O)c1ccc(Oc2cnc(NC(=O)C(Oc3ccc(F)cc3F)c3ccc(S(=O)(=O)N4CCCCC4)cc3)s2)cc1 (centres undefined)
[18]
  fold change (FC): 3.4

## O=C(O)c1ccc(Oc2cnc(NC(=O)C(Oc3ccc(F)cc3F)c3ccc(S(=O)(=O)C4CCOCC4)cc3)s2)cc1 (centres undefined)
[11]
  EC50: 310 nM
[18]
  fold change (FC): 3.04

## O=C(O)c1ccc(Oc2cnc(NC(=O)C(Oc3ccc(F)cc3F)c3ccc(S(=O)(=O)N4CCCC4)cc3)s2)cc1 (centres undefined)
[11]
  EC50: 240 nM
[18]
  fold change (FC): 3.76

## CC(C)(Oc1ccc(F)cc1F)C(=O)Nc1ncc(Oc2ccc(C(=O)O)cc2)s1
[7]
  concentration at 1 h: 23.3 µM
[8]
  concentration at 3 h: 11.1 µM
[11]
  EC50: 6200 nM
[27]
  concentration at 1 h: 8.8 µM
[28]
  concentration at 3 h: 1.4 µM

## O=C(O)C#Cc1cnc(NC(=O)C(Oc2ccc(F)cc2F)c2ccc(S(=O)(=O)C3CC3)cc2)s1 (centres undefined)
[11]
  EC50: 2300 nM

## O=C(O)c1ccc(Oc2cnc(NC(=O)C(Oc3ccc(F)cc3F)c3ccc(S(=O)(=O)N4CCOCC4)cc3)s2)cc1 (centres undefined)
[11]
  EC50: 330 nM
[18]
  fold change (FC): 3

## O=C(O)c1cccc(Oc2cnc(NC(=O)C(Oc3ccc(F)cc3F)c3ccc(S(=O)(=O)C4CC4)cc3)s2)c1 (centres undefined)
[11]
  EC50: 2730 nM

## O=C(O)c1ccc(Cc2cnc(NC(=O)C(Oc3ccc(F)cc3F)c3ccc(S(=O)(=O)C4CC4)cc3)s2)cc1 (centres undefined)
[11]
  EC50: 450 nM

## O=C(Nc1ncc(CN2CCCC2C(=O)O)s1)C(Oc1ccc(F)cc1F)c1ccc(S(=O)(=O)C2CC2)cc1 (centres undefined)
[11]
  EC50: > 10000 nM

## O=C(O)c1ccc(Oc2cnc(NC(=O)[C@@H](Oc3ccc(F)cc3F)c3ccc(S(=O)(=O)C4CC4)cc3)s2)cc1
[11]
  EC50: 690 nM

## O=C(O)Cc1ccc(Oc2cnc(NC(=O)C(Oc3ccc(F)cc3F)c3ccc(S(=O)(=O)C4CC4)cc3)s2)cc1 (centres undefined)
[11]
  EC50: 400 nM
